Assay results published in the supplement of paper PMC10307832.

Columns and labels:
Assay in all cases: relative viability (nuclei count vs DMSO), 5 days (fraction); higher = more cells survive
Bortezomib = compound: CC(C)C[C@H](NC(=O)[C@H](Cc1ccccc1)NC(=O)c1cnccn1)B(O)O [Bortezomib]
Summary of the method: (§1)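 Viability is treated-well nuclei as a fraction of vehicle-well nuclei, reported as the median across plates. Before counting, lung cancer cell lines were kept overnight at 37 °C in 1536-well plates, pinned with five √10-spaced library-drug doses on vehicle-anchored plates, and left 5 days without medium change, then fixed, permeabilised and Hoechst-stained in one step, imaged at 4× and counted by MetaXpress. A plate passed only if control CV was below 25% and at least one doubling occurred.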

[1] = compound: CC1=CC(=NN1)NC2=CC(=NC(=N2)/C=C/C3=CC=CC=C3)N4CCN(CC4)C
Summary of the method: as §1

Obatoclax = compound: COC1=CC(c2cc3ccccc3[nH]2)=N/C1=C\c1[nH]c(C)cc1C [Obatoclax]
Summary of the method: as §1

Cell Line | relative viability (Bortezomib; 0.0002 µM) | relative viability (Bortezomib; 0.000632 µM) | relative viability (Bortezomib; 0.002 µM) | relative viability (Bortezomib; 0.002 µM, anchor plate) | relative viability (Bortezomib; 0.006325 µM) | relative viability (Bortezomib; 0.02 µM) | relative viability ([1]; 0.08 µM) | relative viability ([1]; 0.253 µM) | relative viability ([1]; 0.8 µM) | relative viability ([1]; 2.53 µM) | relative viability ([1]; 8 µM) | relative viability (Obatoclax; 0.01 µM) | relative viability (Obatoclax; 0.03162 µM) | relative viability (Obatoclax; 0.1 µM) | relative viability (Obatoclax; 0.3162 µM) | relative viability (Obatoclax; 1 µM)
PC-3 [JPC-3] | 0.905 | 0.998 | 1.04 | 0.82 | 0.358 | 0.231 | 1.03 | 1.07 | 1.09 | 1.04 | 0.726 | 1.02 | 1.01 | 1.01 | 0.985 | 1.02
LCLC-103H | 0.982 | 0.94 | 1.01 | 1.05 | 0.92 | 0.278 | 0.998 | 1.07 | 1.02 | 0.835 | 0.694 | 0.978 | 0.894 | 0.926 | 0.965 | 1.08
EKVX | 0.934 | 0.96 | 0.987 | 1.04 | 0.669 | 0.124 | 0.9 | 1.05 | 1.09 | 0.844 | 0.267 | 1.07 | 0.891 | 0.905 | 0.982 | 0.918
NCI-H460 | 0.971 | 0.97 | 1.03 | 1.09 | 0.542 | 0.0702 | 1.01 | 1.03 | 1.01 | 0.597 | 0.0321 | 1 | 0.936 | 0.882 | 0.746 | 0.56
NCI-H1793 | 0.843 | 0.705 | 0.997 |  | 0.688 | 0.208 | 0.894 | 0.979 | 0.858 | 0.179 | 0.106 | 0.949 | 0.795 | 0.859 | 0.929 | 0.986
NCI-H727 | 0.919 | 1.06 | 0.897 | 0.936 | 0.647 | 0.171 | 0.835 | 0.688 | 0.924 | 0.441 | 0.374 | 1.09 | 0.88 | 1.14 | 0.972 | 0.658
NCI-H838 | 0.952 | 0.955 | 0.974 | 0.858 | 0.253 | 0.161 | 0.963 | 1.03 | 0.846 | 0.214 | 0.133 | 0.995 | 0.945 | 0.78 | 0.904 | 0.65
NCI-H1792 | 0.754 | 0.838 | 0.904 | 0.956 | 0.602 | 0.277 | 0.957 | 0.934 | 0.813 | 0.338 | 0.0683 | 0.985 | 0.795 |  | 0.92 | 0.7
H3255 | 0.928 | 1.06 | 0.951 | 0.816 | 0.274 | 0.291 | 0.966 | 1.05 | 1.04 | 0.931 | 0.473 | 0.931 | 0.926 | 0.896 | 1 | 0.959
EPLC-272H | 0.8 | 0.652 | 0.871 | 0.902 | 0.66 | 0.105 | 0.819 | 1.09 | 0.908 | 0.404 | 0.35 | 0.99 | 0.924 | 0.96 | 0.675 | 0.339
NCI-H647 | 0.865 | 0.812 | 0.55 | 0.962 | 0.0435 | 0.0339 | 0.868 | 1.05 | 0.935 | 0.14 | 0.056 | 0.987 | 0.894 | 0.68 | 0.711 | 0.303
SW 900 | 0.84 | 0.932 | 0.207 |  | 0.154 | 0.17 | 0.665 | 0.844 | 0.856 | 0.459 | 0.262 | 0.887 | 0.871 | 0.748 | 0.703 | 0.365
LXF-289 | 0.987 | 0.999 | 1.04 | 0.994 | 0.185 | 0.0884 | 0.993 | 1.02 | 0.964 | 0.863 | 0.435 | 0.97 | 1.03 | 0.989 | 0.982 | 0.951
EBC-1 | 0.993 | 1 | 0.417 | 0.576 | 0.0892 | 0.0983 | 0.945 | 0.966 | 0.953 | 0.475 | 0.178 | 0.923 | 0.958 | 0.924 | 0.87 | 0.338
NCI-H1650 | 0.751 | 0.805 | 0.2 | 0.206 | 0.161 | 0.167 | 0.86 | 1.05 | 0.972 | 0.185 | 0.101 | 0.938 | 0.981 | 0.879 | 0.646 | 0.34
NCI-H1755 | 1.01 | 0.96 | 1.02 | 0.963 | 0.378 | 0.224 | 1.03 | 1.05 | 1.02 | 0.722 | 0.443 | 0.981 | 0.975 | 0.884 | 0.994 | 0.964
HCC-15 | 0.909 | 1.07 | 0.996 | 1.01 | 0.549 | 0.0945 | 1.01 | 1 | 1.01 | 0.524 | 0.1 | 0.975 | 0.948 | 0.842 | 1.05 | 0.816

Cell Line | relative viability (Bortezomib; 0.0002 µM) | relative viability (Bortezomib; 0.000632 µM) | relative viability (Bortezomib; 0.002 µM) | relative viability (Bortezomib; 0.002 µM, anchor plate) | relative viability (Bortezomib; 0.006325 µM) | relative viability (Bortezomib; 0.02 µM) | relative viability ([1]; 0.08 µM) | relative viability ([1]; 0.253 µM) | relative viability ([1]; 0.8 µM) | relative viability ([1]; 2.53 µM) | relative viability ([1]; 8 µM) | relative viability (Obatoclax; 0.01 µM) | relative viability (Obatoclax; 0.03162 µM) | relative viability (Obatoclax; 0.1 µM) | relative viability (Obatoclax; 0.3162 µM) | relative viability (Obatoclax; 1 µM)
EMC-BAC-2 | 0.938 | 0.961 | 0.999 | 1.11 | 0.543 | 0.2 | 0.939 | 1.03 | 0.886 | 0.477 | 0.246 | 0.973 | 0.957 | 0.74 | 0.96 | 0.819
NCI-H1734 | 0.929 | 1.01 | 0.944 | 0.945 | 0.15 | 0.119 | 0.939 | 0.913 | 0.799 | 0.328 | 0.155 | 1.01 | 0.934 | 0.812 | 0.821 | 0.365
NCI-H1395 | 0.949 | 0.866 | 0.807 |  | 0.332 | 0.293 | 0.916 | 1.04 | 0.882 | 0.431 | 0.279 | 1 | 0.846 | 0.647 | 0.838 | 0.68
HOP-62 | 1.02 | 0.985 | 0.925 | 0.791 | 0.477 | 0.076 | 1.03 | 1.11 | 1.04 | 0.825 | 0.367 | 1.01 | 0.985 | 0.889 | 1.02 | 1.05
LK-2 | 0.841 | 0.89 | 0.647 |  | 0.209 | 0.182 | 1.04 | 1.02 | 0.809 | 0.47 | 0.127 | 1.03 | 1.01 | 1.17 | 0.932 | 1.11
SW 1573 | 0.963 | 0.981 | 0.947 | 1.02 | 0.11 | 0.0607 | 0.935 | 0.952 | 0.826 | 0.299 | 0.0971 | 1.07 | 0.957 | 0.966 | 0.709 | 0.257
NCI-H1299 | 0.992 | 0.955 | 1.03 | 1 | 0.507 | 0.167 | 1.04 | 1.02 | 1.03 | 0.719 | 0.328 | 0.989 | 1.03 | 0.948 | 1.01 | 0.9
SK-LU-1 | 1.02 | 0.969 | 0.778 | 1.22 | 0.212 | 0.162 | 1.05 | 1.09 | 0.962 | 0.455 | 0.143 | 1.03 | 1.04 | 0.797 | 0.808 | 0.616
NCI-H23 | 0.777 | 0.72 | 0.995 | 1.09 | 0.294 | 0.134 | 0.891 | 0.886 | 0.796 | 0.225 | 0.144 | 1.01 | 0.853 | 0.832 | 0.761 | 0.389
NCI-H1355 | 0.911 | 0.909 | 1.08 | 1.23 | 0.668 | 0.152 | 0.96 | 0.965 | 0.955 | 0.647 | 0.159 | 1.03 | 0.913 | 0.918 | 0.96 | 0.947
COR-L23 | 0.97 | 0.948 | 0.964 | 0.971 | 0.0694 | 0.071 | 1.03 | 1.1 | 0.976 | 0.237 | 0.116 | 1.01 | 1.07 | 0.945 | 0.375 | 0.27
A549 | 0.914 | 0.981 | 0.939 |  | 0.0802 | 0.0522 | 0.909 | 1.04 | 0.92 | 0.29 | 0.0371 | 0.987 | 0.942 | 0.92 | 0.922 | 0.575
NCI-H2023 | 1.02 | 0.9 | 1 | 1.01 | 0.139 | 0.0632 | 1.01 | 1.02 | 0.859 | 0.108 | 0.0691 | 0.928 | 0.969 | 0.946 | 0.774 | 0.229
A-427 | 0.841 | 0.905 | 1.05 | 0.998 | 0.233 | 0.169 | 1.05 | 0.908 | 0.942 | 0.286 | 0.172 | 0.968 | 0.972 | 0.86 | 0.954 | 0.719
UMC-11 | 0.896 | 0.927 | 0.946 | 0.757 | 0.668 | 0.185 | 0.928 | 0.904 | 0.693 | 0.187 | 0.141 | 1.02 | 0.962 | 0.843 | 0.921 | 0.554
NCI-H1623 | 0.955 | 1.01 | 0.766 |  | 0.325 | 0.273 | 0.956 | 1.13 | 1.01 | 0.843 | 0.542 | 0.98 | 0.978 | 1.24 | 1.04 | 0.956
